Test results reported in US20260138976A1 (Hoffmann-La Roche Inc., priority 2022, published 2026).
pEC50, pIC50: −log10 of the molar value.

How the values were obtained:
[1] = molecular target: T1, DGKα (hDGKalpha(1-735)-N-His) (Homo sapiens, UniProt P23743); test: In vitro DGK inhibition assay, DGKalpha ADP Glo (in house); format: biochemical; details: 4 nM DGKα, 25 μM ATP, 125 uM DLG in liposomes, 1 hour reaction
T1 construct: hDGKalpha(1-735)-N-His; His (N); made in house; host or cells: Sf21 insect cells (baculovirus)
T1 sequence (P23743 whole entry): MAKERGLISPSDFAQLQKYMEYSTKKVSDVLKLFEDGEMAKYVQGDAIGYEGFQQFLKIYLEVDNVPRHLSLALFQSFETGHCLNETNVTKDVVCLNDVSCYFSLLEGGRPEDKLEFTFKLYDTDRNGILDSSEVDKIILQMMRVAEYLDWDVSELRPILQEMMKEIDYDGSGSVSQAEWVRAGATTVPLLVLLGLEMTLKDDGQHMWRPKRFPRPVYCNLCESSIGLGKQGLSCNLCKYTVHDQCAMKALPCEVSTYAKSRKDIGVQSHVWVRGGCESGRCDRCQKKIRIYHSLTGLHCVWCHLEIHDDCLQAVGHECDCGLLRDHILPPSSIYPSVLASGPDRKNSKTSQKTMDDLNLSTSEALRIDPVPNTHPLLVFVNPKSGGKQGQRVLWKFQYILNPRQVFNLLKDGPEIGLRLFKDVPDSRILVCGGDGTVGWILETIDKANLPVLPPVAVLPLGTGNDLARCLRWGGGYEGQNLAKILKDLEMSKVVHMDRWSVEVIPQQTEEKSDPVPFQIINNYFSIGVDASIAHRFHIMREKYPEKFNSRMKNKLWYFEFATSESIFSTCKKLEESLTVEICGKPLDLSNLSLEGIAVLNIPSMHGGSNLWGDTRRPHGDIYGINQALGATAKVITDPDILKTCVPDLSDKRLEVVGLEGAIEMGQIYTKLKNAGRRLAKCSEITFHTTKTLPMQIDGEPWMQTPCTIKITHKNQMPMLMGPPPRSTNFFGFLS
Summary of the method: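 Full-length His-tagged human DGKα (4 nM) or DGKζ (2 nM), expressed in Sf21 cells, phosphorylated 125 µM DLG in PS/PC liposomes with ATP at 25 µM (α) or 50 µM (ζ) for 1 h. ADP was measured by ADP-Glo luminescence. Compounds were tested as 11-point 1:3 series in 2% DMSO.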

[2] = system: primary human T-cells; test: Proliferation assay (5 days, CellTiter-Glo, CD3-stimulated T-cells); format: cell-based; details: for Emax proliferation (% activation): CD3 condition, normalised to DMSO (neutral) and 20 μM reference compound A1 = 100%; for pEC50: Homo sapiens, T-cell, 120 h, CD3-stimulated primary human T-cells, 5 days, CellTiter-Glo, fitted sigmoidal curve, read-out: Tcell Proliferation CD3 EC50
Summary of the method: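 Expanded primary human T-cells, 100 k cells/well, were stimulated with plate-coated CD3 antibody (donor-titrated) and given compound in a 5 or 6 pt dose response from 20 μM or 10 μM final top, 0.2% DMSO final. ATP was read by CellTiter-Glo after 5 days. EC50 and Emax were reported as % of 20 μM reference compound A1.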

Row | Compound | pIC50 [1] | Emax proliferation (% activation) [2] [% activation] | pEC50 [2]
1 | N[C@H]1CS(=O)(=O)c2ccc(-c3nnc(N4CCOC(C(F)(F)F)C4)o3)cc2N(Cc2ccc(-c3ccc(C(F)(F)F)cc3)cc2)C1=O (stereo partly drawn) [Example 73, (3R)-3-amino-1,1-dioxo-7-[5-[2-(trifluoromethyl)morpholin-4-yl]-1,3,4-oxadiazol-2-yl]-5-[[4-[4-(trifluoromethyl)phenyl]phenyl]methyl]-2,3-dihydro-1λ^6,5-benzothiazepin-4-one] | < 4.20 | 95 | 6.08
2 | N[C@H]1CS(=O)(=O)c2ccc(-c3nnc(N4CCOC(C(F)(F)F)C4)o3)cc2N(Cc2ccc(-c3noc(C(F)(F)F)n3)cc2)C1=O (stereo partly drawn) [Example 74, (3R)-3-amino-1,1-dioxo-7-[5-[2-(trifluoromethyl)morpholin-4-yl]-1,3,4-oxadiazol-2-yl]-5-[[4-[5-(trifluoromethyl)-1,2,4-oxadiazol-3-yl]phenyl]methyl]-2,3-dihydro-1λ^6,5-benzothiazepin-4-one] | 5.44 | 148 | 6.28
3 | N[C@H]1CS(=O)(=O)c2ccc(-c3nnc(N4CCOC(C(F)(F)F)C4)o3)cc2N(Cc2ccc(-c3ccc(C(F)(F)F)cn3)cc2)C1=O (stereo partly drawn) [Example 75, (3R)-3-amino-1,1-dioxo-7-[5-[2-(trifluoromethyl)morpholin-4-yl]-1,3,4-oxadiazol-2-yl]-5-[[4-[5-(trifluoromethyl)-2-pyridyl]phenyl]methyl]-2,3-dihydro-1λ^6,5-benzothiazepin-4-one] | 4.34 | 115 | 5.92
4 | N[C@H]1CS(=O)(=O)c2ccc(-c3nnc(N4CCOC5(CC5)C4)o3)cc2N(Cc2ccc(-c3noc(C(F)(F)F)n3)cc2)C1=O [Example 77] | 4.32 | 58 | 5.41
5 | COc1ccc(-c2ccc(CN3C(=O)[C@@H](N)CS(=O)(=O)c4ccc(-c5nnc(N6CCOC(F)(F)C6)o5)cc43)cc2)cc1 [Example 79, (3R)-3-amino-7-[5-(2,2-difluoromorpholin-4-yl)-1,3,4-oxadiazol-2-yl]-5-[[4-(4-methoxyphenyl)phenyl]methyl]-1,1-dioxo-2,3-dihydro-1λ^6,5-benzothiazepin-4-one] | 4.40 | 167 | 6.00
6 | CC(C)(C)c1nnc(-c2ccc3c(c2)N(Cc2ccc(-c4nc(C(F)(F)F)co4)cc2)C(=O)[C@@H](N)CS3(=O)=O)o1 [Example 89, (3R)-3-amino-7-(5-tert-butyl-1,3,4-oxadiazol-2-yl)-1,1-dioxo-5-[[4-[4-(trifluoromethyl)oxazol-2-yl]phenyl]methyl]-2,3-dihydro-1λ^6,5-benzothiazepin-4-one] | 5.08 | 153 | 6.69
7 | CC(C)(C)c1nnc(-c2ccc3c(c2)N(Cc2ccc(-n4cnc(C(F)(F)F)n4)cc2)C(=O)[C@@H](N)CS3(=O)=O)o1 [Example 91, (3R)-3-amino-7-(5-tert-butyl-1,3,4-oxadiazol-2-yl)-1,1-dioxo-5-[[4-[3-(trifluoromethyl)-1,2,4-triazol-1-yl]phenyl]methyl]-2,3-dihydro-126,5-benzothiazepin-4-one] | 5.37 | 127 | 6.39
8 | N[C@H]1CS(=O)(=O)c2ccc(-c3nnc(C4(C5CC5)CCCO4)o3)cc2N(Cc2ccc(-c3nnc(C(F)(F)F)o3)cc2)C1=O (stereo partly drawn) [Example 97, (3R)-3-amino-7-[5-(2-cyclopropyltetra-hydrofuran-2-yl)-1,3,4-oxadiazol-2-yl]-1,1-dioxo-5-[[4-[5-(trifluoromethyl)-1,3,4-oxadiazol-2-yl]phenyl]methyl]-2,3-dihydro-1λ6,5-benzothiazepin-4-one] | 5.33 | 96 | 6.43

Second part, led by results:

Row | pIC50 [1] | Compound | Emax proliferation (% activation) [2] [% activation] | pEC50 [2]
9 | 4.61 | N[C@H]1CS(=O)(=O)c2ccc(-c3nnc(N4CCC(F)(F)CC4)o3)cc2N(Cc2ccc(-c3nnc(C(F)(F)F)o3)cc2)C1=O [Example 71, (3R)-3-amino-7-[5-(4,4-difluoro-1-piperidyl)-1,3,4-oxadiazol-2-yl]-1,1-dioxo-5-[[4-[5-(trifluoromethyl)-1,3,4-oxadiazol-2-yl]phenyl]methyl]-2,3-dihydro-1λ^6,5-benzothiazepin-4-one] | 129 | 5.54
10 | < 4.20 | CC1(Nc2nnc(-c3ccc4c(c3)N(Cc3ccc(-c5noc(C(F)(F)F)n5)cc3)C(=O)[C@@H](N)CS4(=O)=O)o2)CC(F)(F)C1 [Example 72, (3R)-3-amino-7-[5-[(3,3-difluoro-1-methyl-cyclobutyl)amino]-1,3,4-oxadiazol-2-yl]-1,1-dioxo-5-[[4-[5-(trifluoromethyl)-1,2,4-oxadiazol-3-yl]phenyl]methyl]-2,3-dihydro-1λ^6,5-benzothiazepin-4-one] | 252 | 5.78
11 | 4.58 | COc1ccc(-c2ccc(CN3C(=O)[C@@H](N)CS(=O)(=O)c4ccc(-c5nnc(N6CCC(F)(F)C6)o5)cc43)cc2)cc1 [Example 76, (3R)-3-amino-7-[5-(3,3-difluoropyrrolidin-1-yl)-1,3,4-oxadiazol-2-yl]-5-[[4-(4-methoxyphenyl)phenyl]methyl]-1,1-dioxo-2,3-dihydro-1λ^6,5-benzothiazepin-4-one] | 263 | 5.87
12 | 4.36 | N[C@H]1CS(=O)(=O)c2ccc(-c3nnc(N4CCOC(F)(F)C4)o3)cc2N(Cc2ccc(-c3noc(C(F)(F)F)n3)cc2)C1=O [Example 78, (3R)-3-amino-7-[5-(2,2-difluoromorpholin-4-yl)-1,3,4-oxadiazol-2-yl]-1,1-dioxo-5-[[4-[5-(trifluoromethyl)-1,2,4-oxadiazol-3-yl]phenyl]methyl]-2,3-dihydro-1λ^6,5-benzothiazepin-4-one] | 150 | 5.96
13 | 4.41 | COc1ccc(-c2ccc(CN3C(=O)[C@@H](N)CS(=O)(=O)c4ccc(-c5nnc(N(C)CC(F)(F)F)o5)cc43)cc2)cc1 [Example 81, (3R)-3-amino-5-[[4-(4-methoxyphenyl)phenyl]methyl]-7-[5-[methyl(2,2,2-trifluoroethyl)amino]-1,3,4-oxadiazol-2-yl]-1,1-dioxo-2,3-dihydro-1λ^6,5-benzothiazepin-4-one] | 138 | 6.14
14 | < 4.20 | N[C@H]1CS(=O)(=O)c2ccc(-c3noc(C4(N)COC4)n3)cc2N(Cc2ccc(-c3noc(C(F)(F)F)n3)cc2)C1=O [Example 84, (3R)-3-amino-7-[5-(3-aminooxetan-3-yl)-1,2,4-oxadiazol-3-yl]-1,1-dioxo-5-[[4-[5-(trifluoromethyl)-1,2,4-oxadiazol-3-yl]phenyl]methyl]-2,3-dihydro-1lambda6,5-benzothiazepin-4-one] | 151 | 5.76
15 | < 4.20 | N[C@H]1CS(=O)(=O)c2ccc(-c3noc(-c4cccnc4Cl)n3)cc2N(Cc2ccc(-c3noc(C4CC4)n3)cc2)C1=O [Example 85, (3R)-3-amino-7-[5-(2-chloro-3-pyridyl)-1,2,4-oxadiazol-3-yl]-5-[[4-(5-cyclopropyl-1,2,4-oxadiazol-3-yl)phenyl]methyl]-1,1-dioxo-2,3-dihydro-1λ^6,5-benzothiazepin-4-one] | 62 | 5.09
16 | < 4.20 | Cc1nc(F)ccc1-c1nc(-c2ccc3c(c2)N(Cc2ccc(-c4noc(C5CC5)n4)cc2)C(=O)[C@@H](N)CS3(=O)=O)no1 [Example 86, (3R)-3-amino-5-[[4-(5-cyclopropyl-1,2,4-oxadiazol-3-yl)phenyl]methyl]-7-[5-(6-fluoro-2-methyl-3-pyridyl)-1,2,4-oxadiazol-3-yl]-1,1-dioxo-2,3-dihydro-1λ^6,5-benzothiazepin-4-one] | 99 | 5.78
17 | < 4.20 | N[C@H]1CS(=O)(=O)c2ccc(-c3noc(-c4cccnc4C(F)(F)F)n3)cc2N(Cc2ccc(-c3noc(C4CC4)n3)cc2)C1=O [Example 87, (3R)-3-amino-5-[[4-(5-cyclopropyl-1,2,4-oxadiazol-3-yl)phenyl]methyl]-1,1-dioxo-7-[5-[2-(trifluoromethyl)-3-pyridyl]-1,2,4-oxadiazol-3-yl]-2,3-dihydro-1λ^6,5-benzothiazepin-4-one] | 106 | 5.44
18 | 4.62 | CC(c1nc(-c2ccc(CN3C(=O)[C@@H](N)CS(=O)(=O)c4ccc(-c5nnc(C6(N)CCCCC6)o5)cc43)cc2)no1)C(F)(F)F (stereo partly drawn) [Example 98, (3R)-3-amino-7-[5-(1-aminocyclohexyl)-1,3,4-oxadiazol-2-yl]-1,1-dioxo-5-[[4-[5-(2,2,2-trifluoro-1-methyl-ethyl)-1,2,4-oxadiazol-3-yl]phenyl]methyl]-2,3-dihydro-1λ^6,5-benzothiazepin-4-one] | 97 | 5.74
